Like-named read-outs stand apart in the source and are kept apart here.
How the values were obtained:
[1] = test system: Ki67; assay: Ki67 immunohistochemistry in PC3 tumors (Compound 2); format: in vivo, SCID mice; conditions: 5 mg/kg oral QD for 6 days, 2 hours after last dose
[2] = test system: PC3 cell line; assay: WST-1 cell proliferation assay (Compound 2); format: cell-based; conditions: Homo sapiens
Description: All growth inhibition experiments were repeated on different occasions at least twice. Potency was determined by calculating the IC50 value using the data describing the growth inhibition curve. A reference compound was included in each plate assay to monitor inter-assay variation and the IC50 value for the reference compound was used as part of the acceptance criteria for the assay. […] Next, compound was added to the designated well at a dilution of 1:10 (i.e., 20 μL of the diluted compound was added to 180 μL of culture media in each well). The final dilution of compound was 1:500, which yielded a final DMSO concentration of 0.2% in each well. All concentrations were performed in triplicate. Additionally, each plate tested contained cells treated with a reference compound in order to evaluate interassay variation and the IC50 value generated was used as criteria in accepting the test data. […] Cell proliferation was assessed using the WST-1 assay, which is based on measurement of metabolic activity via the reduction of tetrazolium salts to formazan salts. […] Absorbance was measured at 450 nm on the VICTOR™ X2 multilabel plate reader (PerkinElmer). […] The software (XLfit from IDBS) calculated the percentage inhibition at each concentration of compound by normalizing to the DMSO control values. […] Percentage inhibition curves were plotted and IC50 values calculated.

[3] = test system: CD31; assay: CD31 immunohistochemistry in PC3 tumors (Compound 2); format: in vivo, SCID mice; conditions: 5 mg/kg oral QD for 6 days, 2 hours after last dose
[4] = test system: 4EBP1 (T46); assay: p-4E-BP1 (T46) in PC-3 cell lysates, ELISA (Compound 2); format: cell-based; conditions: Homo sapiens; PC-3, 1 hour; read-out: mTORC1 4EBP1 (T46) IC50
Description: The direct substrate for mTORC1 was 4E-BP1([…]) and the indirect downstream substrate was S6RP (S235/[…]). The direct substrate for mTORC2 was AKT (S473) and the indirect downstream substrates measured were GSK3β(S9) and PRAS40 ([…]). Additionally, the phosphorylation status of AKT (T308), a phosphorylation site for PDK1, was monitored. Concentration-response curves were plotted and IC50 values determined. Cells were plated at the required density as described in the previous section detailing the Meso Scale assays. […] After incubation with compound, the culture medium was removed via aspiration. Then the plate was placed on ice and 35 μL of the Invitrogen Cell Extraction Buffer (containing fresh PMSF and protease inhibitor cocktail) were added to each well. The treated cells were allowed to undergo lysis for a total of 30 minutes on ice and then shaken for 2 minutes at 4° C. At this point, the plate could be either frozen at -80° C. for later analysis or analyzed immediately with the Invitrogen 4E-BP1[[…]] assay kit. Standards were prepared according to the supplied protocol and 100 μL of each standard was added to appropriate wells. Samples containing Cell Extraction buffer only or diluent buffers only also were included for background controls. […] Absorbance was measured at 450 nm on the VICTORTM X2 multilabel plate reader (Perkin Elmer).

IC50 ([2]; PC-3, 72 h, PC3 cell line, 3 days, average, read-out: growth inhibition IC50): 140 nM | IC50 ([2]; PC-3, prostate tumor cells, read-out: growth inhibition IC50 values): 140 to 1310 nM | IC50 [4]: 130 nM
Structure (SMILES): CCN1C(=O)CNc2ncc(-c3ccc(-c4nc[nH]n4)nc3C)nc21 [Compound 2, 1-ethyl-7-(2-methyl-6-(1H-1,2,4-triazol-3-yl)pyridin-3-yl)-3,4-dihydropyrazino[2,3-b]pyrazin-2(1H)-one]
reduction in the number of proliferating cells (Ki67) vs vehicle [1]: 93% | reduction of CD31 positive blood vessels vs vehicle [3]: 50%
